Assay results published in US8361999B2, “Methods of treating cholesterol gallstone disease with ezetimibe” (Pontificia Universidad Catolica de Chile, priority 2005, dated 2013).
Marks after values point to notes of the source that are not given here.

Assays:
[1] = test system: C57BL/6J mice; assay: Determination of hepatic cholesterol, protocol #1; assay type: in vivo, mouse; settings: 14 days
Protocol: (§1) Surgery and sample harvest. The groups were maintained for 14 days (protocol #1) or 30 days (protocol #2) in the different experimental conditions. During the last three days of the protocols, 24 h depositions were collected from the different groups (pool) to determine the fecal excretion of neutral sterols (cholesterol) and acidic sterols (bile salts). At the end of the time established in the protocols, the mice were anesthetized (between 08:00-10:00 AM) with an intraperitoneal pentobarbital injection in doses of 4.5 mg per 100 gr body weight (Amigo et al., 2000) and subjected to surgery. Standardized surgery consists in an extended […] and visualization of abdominal organs, including liver, biliary tree and gallbladder. First, we performed a resection of the gallbladder (cholecystectomy), with the cystic duct previously ligated (Amigo et al., 2002; Amigo et al., 2000; Amigo et al., 2003b). The gallbladder is removed and visually inspected to determine the presence of gallstones. Then, the gallbladder bile is extracted to analyze the presence of cholesterol crystals in the fresh samples under the microscope with polarized light (20×). Aliquots are stored at −20° C. for subsequent chemical analysis. Afterwards, the common biliary duct is cannulated (biliary fistula) with a P-10 polyethylene cannula to collect bile during 15 minutes, determine bile flow by gravimetry (1 g bile=1 ml; bile flow is expressed as μl/min/g of mouse liver) and for posterior chemical analysis of biliary lipids and glutathione, as specified later. […] Then, the liver is removed, weighted, frozen in liquid nitrogen and stored at −80 for subsequent analyses. The plasma is separated by centrifugation at 1,500 rpm and stored at −80° C. for later analysis. The animal protocols were approved by our institution Ethics Committee and the animals were treated according to international care rules for experimental animals.
Determination of hepatic cholesterol. The hepatic cholesterol content is quantified from hepatic tissue (50 mg) that is homogenized in chloroform/methanol 2:1. The homogenate is incubated at 50° C. for 30 minutes, and then distilled H2O is added to separate the phases. The mix is vortexed and incubated at 4° C. for two hours and centrifuged at 1,000 rpm for 20 minutes. The lower phase (hydrophobic-chloroform) is removed and dried under gaseous nitrogen. The lipids on the tube wall are resuspended in chloroform plus Triton X-100 0.5% v/v. Four aliquots are taken and dried at room temperature. Total cholesterol content was measured to half of the tubes by the enzymatic method described earlier for biliary cholesterol. To the other half, free cholesterol was measured in buffer (Tris-HCl pH 7.6, Triton X-100, 0.2% phenol, aminoantipyrine) plus the enzymes cholesterol oxidase and peroxidase. The samples are incubated and quantified in the same way described for total cholesterol. The cholesterol ester content for each sample is calculated as the difference between total cholesterol and free cholesterol. The values obtained in each case are given as mg cholesterol/g liver (Folch et al., 1957).

[2] = test system: C57BL/6J mice; assay: Biliary flow and hepatic secretion of biliary lipids; assay type: in vivo, mouse
Protocol: as §1
Intestinal absorption of cholesterol and bile salts. The capacity of Ezetimibe to inhibit cholesterol and bile salt absorption was indirectly determined by quantification of neutral sterols (cholesterol) and acidic sterols (bile acids) present in the feces collected on day 12, 13 and 14 of the experiment (three days). In order to determine cholesterol (neutral sterols) fecal excretion, the feces were dried at 50° C. for three days and then weighted to obtain an average of fecal excretion per day (in grams). […] 50 μl aliquots, in duplicate, are dried at room temperature, and total cholesterol is quantified according to the enzymatic method described above. The values obtained are expressed as μmoles cholesterol/day/100 g of mouse (Miettinen et al., 1965). […]

[3] = test system: Ntcp; assay: Hepatic expression of bile salts transporter Ntcp (Western blot); assay type: in vivo, mouse
From the text: Expression of Specific Bile Salts (Ntcp, Bsep), Phospholipid (MDR2) and Organic Anions or Glutathione (MRP2); And Determination of Glutathione Synthesis (Gluthamylcystein-Synthetase (GGCS)).
Western Blot analysis. We evaluated protein expression levels of the bile salts transporters Ntcp (sinusoidal pole) and Bsep (cannicular pole) by Western blotting in total liver membranes or liver plasma membranes from mice treated with the different diets. Total membranes were obtained from liver fragments homogenized in Tris-HCl pH 7.5, MgCl2 and sucrose. The homogenates were centrifuged at 1,000 g to separate nuclei, and the supernatants were then centrifuged at 100,000 g. The pellet, containing the total membranes, was resuspended in the buffer described above and proteins were quantified by the Bradford method. Aliquots containing 50 μg protein were separated by SDS-PAGE and transfer to nitrocellulose. The membranes were incubated in buffer TBS-T (Tris-HCl pH 7.5, NaCl and Tween-20), milk 5% w/v plus the antibodies to evaluate the different proteins (Bsep, Ntcp). The secondary antibodies were IgG anti rabbit or anti mouse coupled to peroxidase. The protein signals were detected by the ECL method.

[4] = test system: SR-BI; assay: Hepatic expression of SR-BI; assay type: in vivo, mouse; settings: 14 days
[5] = test system: cholesterol absorption; settings: relative to SCH 48461; cited from earlier work

O=C1[C@H](CC[C@H](O)c2ccc(F)cc2)[C@@H](c2ccc(O)cc2)N1c1ccc(F)cc1 [Ezetimibe, (−)-1-(4-fluorophenyl)-(3R)-[3-(4-fluorophenyl)-(.S)-hydroxypropyl]-(4S)-(4-hydroxyphenyl)-2-azetidinone]
Hepatic Cholesterol Esterified ([1]; Chow + Ezetimibe): 0.34 ± 0.16 mg/mL
Hepatic Cholesterol Free ([1]; Chow + Ezetimibe): 1.91 ± 0.65 mg/mL
Hepatic Cholesterol Total ([1]; Chow + Ezetimibe): 2.26 ± 0.59 mg/mL
Hepatic Cholesterol Esterified ([1]; Lithogenic + Ezetimibe): 1.31 ± 0.99^& mg/ml
Hepatic Cholesterol Free ([1]; Lithogenic + Ezetimibe): 2.59 ± 0.24 mg/mL
Hepatic Cholesterol Total ([1]; Lithogenic + Ezetimibe): 3.91 ± 1.05*^& mg/ml
hepatic cholesterol content smaller with Ezetimibe than with water ([1]; control diet): 20%
increment of total hepatic cholesterol content ([1]; lithogenic diet plus Ezetimibe, 360% on lithogenic diet without Ezetimibe): 38%
biliary flow larger than in the group on lithogenic diet without ezetimibe (significant) ([2]; lithogenic diet): 50-60%
secretion of bile salts and phospholipids vs group without ezetimibe ([2]; lithogenic diet (FIG. 3)): increase
secretion of biliary cholesterol vs group without ezetimibe ([2]; lithogenic diet (FIG. 3)): did not associate to a greater secretion
increase in biliary flow (slight, non-significant) ([2]; low cholesterol control diet): 30-40%
hepatic expression of Ntcp, lithogenic diet plus Ezetimibe vs lithogenic diet ([3]; 14 days): no significant differences
decrease of Ntcp protein expression level on a lithogenic diet ([3]; FIG. 6 B, lithogenic diet with Ezetimibe vs plus water): significantly attenuated
hepatic expression of SR-BI, lithogenic diet plus Ezetimibe vs lithogenic diet [4]: no significant differences
inhibitory activity in cholesterol absorption higher than predecessor analog (SCH 48461) [5]: 400 times
